Patent publication US20050074879A1, “Antisense oligonucleotide modulation of STAT3 expression” (priority 2000, published 2005)
Oligonucleotides are written 5' to 3', each unit as a sugar letter and its base; * is a phosphorothioate linkage, no mark a phosphodiester; rarer units and linkages stand in square brackets, end groups in braces. Plain capitals give the bases only. e = 2'-O-(2-methoxyethyl) (MOE); [5mC] = 5-methylcytosine; d = 2'-deoxy (DNA)

Tests used:
Human STAT3 mRNA [1] = assay: Human STAT3 mRNA dose response in T-24 cells, real-time PCR with PPS 199 (Table 18); assay type: cell-based; settings: 16 hours, − decrease, + increase relative to untreated control
Method in brief: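 Bladder carcinoma T-24 cells transfected with oligonucleotide at 18.75, 37.5, 75 or 150 nM plus 3 ug/mL LIPOFECTIN per 100 nM, 16 h. STAT3 mRNA quantified by real-time PCR (PPS 199), normalized with Ribogreen; change given relative to untreated cells.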

Human STAT3 mRNA [2] = assay: Inhibition of human STAT3 mRNA levels in A549 cells, 75 nM, real-time PCR (Table 13); assay type: cell-based; settings: 75 nM oligonucleotide with LIPOFECTIN, real-time PCR PPS 199, percent inhibition relative to untreated control cells, average of 2 experiments
Method in brief: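 A549 cells at 65–75% confluency were transfected in duplicate with 75 nM oligonucleotide plus […] Lipofectin for 4–7 h at 37° C and harvested 16–24 h later. STAT3 mRNA was quantified by real-time RT-PCR with primer-probe set PPS 199 and normalized to RiboGreen total RNA. Inhibition is relative to untreated controls.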

337332 (antisense eG*eA*eA*eG*e[5mC]*d[5mC]*d[5mC]*dT*dT*dG*d[5mC]*d[5mC]*dA*dG*d[5mC]*e[5mC]*eA*eT*eG*eT) [compound 337332]
Percent change of STAT3 expression using PPS 199 (Human STAT3 mRNA [1]; 18.75 nM oligonucleotide): −63% | Percent change of STAT3 expression using PPS 199 (Human STAT3 mRNA [1]; 37.5 nM oligonucleotide): −79% | Percent change of STAT3 expression using PPS 199 (Human STAT3 mRNA [1]; 75 nM oligonucleotide): −87% | Percent change of STAT3 expression using PPS 199 (Human STAT3 mRNA [1]; 150 nM oligonucleotide): −92% | % Inhib (inhibition of human STAT 3 mRNA levels) (Human STAT3 mRNA [2]): 91%

337333 (antisense eA*eA*eG*eG*eA*dG*dA*dA*dG*d[5mC]*d[5mC]*d[5mC]*dT*dT*dG*e[5mC]*e[5mC]*eA*eG*e[5mC]) [compound 337333]
Percent change of STAT3 expression using PPS 199 (Human STAT3 mRNA [1]; 18.75 nM oligonucleotide): −48% | Percent change of STAT3 expression using PPS 199 (Human STAT3 mRNA [1]; 37.5 nM oligonucleotide): −73% | Percent change of STAT3 expression using PPS 199 (Human STAT3 mRNA [1]; 75 nM oligonucleotide): −82% | Percent change of STAT3 expression using PPS 199 (Human STAT3 mRNA [1]; 150 nM oligonucleotide): −88% | % Inhib (inhibition of human STAT 3 mRNA levels) (Human STAT3 mRNA [2]): 90%

337348 (antisense eT*e[5mC]*e[5mC]*eG*eA*dA*dT*dG*d[5mC]*d[5mC]*dT*d[5mC]*d[5mC]*dT*d[5mC]*e[5mC]*eT*eT*eG*eG) [compound 337348]
Percent change of STAT3 expression using PPS 199 (Human STAT3 mRNA [1]; 18.75 nM oligonucleotide): −61% | Percent change of STAT3 expression using PPS 199 (Human STAT3 mRNA [1]; 37.5 nM oligonucleotide): −77% | Percent change of STAT3 expression using PPS 199 (Human STAT3 mRNA [1]; 75 nM oligonucleotide): −82% | Percent change of STAT3 expression using PPS 199 (Human STAT3 mRNA [1]; 150 nM oligonucleotide): −86% | % Inhib (inhibition of human STAT 3 mRNA levels) (Human STAT3 mRNA [2]): 92%
